Assay results: ChEMBL document CHEMBL1139300, “Identification of a small molecule beta-secretase inhibitor that binds without catalytic aspartate engagement” (Bioorg Med Chem Lett, 2009)

Target: Beta-secretase 1 (Homo sapiens, UniProt P56817)
Assay: Inhibition of BACE1

Beta-secretase 1, sequence (P56817 whole entry): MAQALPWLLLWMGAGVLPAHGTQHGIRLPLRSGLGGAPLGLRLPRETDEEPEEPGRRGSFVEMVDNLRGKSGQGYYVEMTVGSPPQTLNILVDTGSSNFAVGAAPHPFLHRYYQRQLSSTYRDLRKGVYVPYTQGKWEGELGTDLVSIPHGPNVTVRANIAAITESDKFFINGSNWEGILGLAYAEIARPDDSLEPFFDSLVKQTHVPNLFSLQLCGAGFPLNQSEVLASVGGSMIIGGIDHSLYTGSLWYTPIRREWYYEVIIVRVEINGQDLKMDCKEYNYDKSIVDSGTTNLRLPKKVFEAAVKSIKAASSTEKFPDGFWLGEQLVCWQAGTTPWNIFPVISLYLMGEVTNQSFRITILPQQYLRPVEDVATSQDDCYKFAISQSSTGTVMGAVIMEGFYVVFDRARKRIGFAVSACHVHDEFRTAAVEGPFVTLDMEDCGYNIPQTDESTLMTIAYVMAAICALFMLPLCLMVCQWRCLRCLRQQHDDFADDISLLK

| Structure (SMILES) | IC50 |
| --- | --- |
| O=[N+]([O-])c1cc(Nc2cc(-c3ccccc3)ncn2)ccc1Br | > 600 µM |
| CS(=O)(=O)Nc1cccc(Nc2cc(-c3ccccc3)ncn2)c1 | 400 µM |
| Cc1ccc(Nc2cc(-c3ccccc3N(C)C)ncn2)cc1NS(C)(=O)=O | 317 µM |
| CS(=O)(=O)Nc1cc(Nc2cc(-c3ccccc3)ncn2)ccc1-c1ccccc1 | > 600 µM |
| Cc1ccc(Nc2cc(-c3ccc4c(c3)OCCO4)ncn2)cc1NS(C)(=O)=O | 21 µM |
| C=CCc1ccc(Nc2cc(-c3ccccc3)ncn2)cc1NS(C)(=O)=O | 570 µM |
| Cc1ccc(Nc2cc(-c3ccc(N(C)C)cc3)ncn2)cc1NS(C)(=O)=O | 15 µM |
| Cc1ccc(Nc2cc(-c3ccccc3C)ncn2)cc1NS(C)(=O)=O | 219 µM |
| Cc1ccc(Nc2cc(-c3ccc(CCCO)cc3)ncn2)cc1NS(C)(=O)=O | 37 µM |

Continued, values first:

| IC50 | Structure (SMILES) |
| --- | --- |
| > 600 µM | CC(=O)Nc1cc(Nc2cc(-c3ccccc3)ncn2)ccc1C |
| 16 µM | CS(=O)(=O)Nc1cc(Nc2cc(-c3ccccc3)ncn2)ccc1Cl |
| 110 µM | CS(=O)(=O)Nc1cc(Nc2cc(-c3ccccc3)ncn2)ccc1F |
| 69 µM | COc1ccc(Nc2cc(-c3ccccc3)ncn2)cc1NS(C)(=O)=O |
| > 600 µM | Nc1cc(Nc2cc(-c3ccccc3)ncn2)ccc1Br |
| 24 µM | Cc1ccc(Nc2cc(-c3ccccc3)ncn2)cc1NS(C)(=O)=O |
| 30 µM | CS(=O)(=O)Nc1cc(Nc2cc(-c3ccccc3)ncn2)ccc1Br |
| > 1600 µM | Cc1ccc(Nc2cc(-c3ccccc3)ncn2)cc1N(C)S(C)(=O)=O |
| 19 µM | Cc1ccc(Nc2cc(-c3ccc(-c4ccccc4)cc3)ncn2)cc1NS(C)(=O)=O |
